Laboratory results published in the NIST ThermoML archive (doi:10.1021/je500594z).

Assay: xn = mol fraction of the nth substance listed
Settings: 101 kPa, Liquid; for viscosity: Falling or rolling sphere viscometry; for speed of sound: Sing-around technique in a fixed-path interferometer; for mass density: Vibrating tube method

CCn1cc[n+](C)c1.O=S(=O)([N-]S(=O)(=O)C(F)(F)F)C(F)(F)F + CCO
Settings	mass density [kg/m3]	speed of sound [m/s]	viscosity [mPa·s]
278.15 K, x1 = 0.051	946.21	1201.4	2.42
278.15 K, x1 = 0.102	1052.67	1199.9	3.44
278.15 K, x1 = 0.198	1191.39	1210.6	5.9
278.15 K, x1 = 0.292	1281.48	1224.4	8.91
278.15 K, x1 = 0.402	1356.04	1239.1	13.41
278.15 K, x1 = 0.501	1405.04	1250.3	18.24
278.15 K, x1 = 0.619	1449.8	1261.2	25.83
278.15 K, x1 = 0.71	1476.96	1268.1	33.19
278.15 K, x1 = 0.811	1502.1	1274.8	43.83
278.15 K, x1 = 0.907	1521.68	1280	56.33
278.15 K, x1 = 1	1538.23	1284.9	75.08
298.15 K, x1 = 0.051	927.85	1139.3	1.57
298.15 K, x1 = 0.102	1033.54	1142.6	2.16
298.15 K, x1 = 0.198	1171.44	1158.2	3.47
298.15 K, x1 = 0.292	1261.14	1174.5	5.02
298.15 K, x1 = 0.402	1335.52	1190.9	7.16
298.15 K, x1 = 0.501	1384.32	1203	9.66
298.15 K, x1 = 0.619	1429.22	1214.6	13.22
298.15 K, x1 = 0.71	1456.41	1222	16.41
298.15 K, x1 = 0.811	1481.59	1229	20.91
298.15 K, x1 = 0.907	1501.19	1234.4	25.67
298.15 K, x1 = 1	1517.76	1240.1	32.02
318.15 K, x1 = 0.051	909.21	1079.4	1.09
318.15 K, x1 = 0.102	1014.18	1087.3	1.46
318.15 K, x1 = 0.198	1151.39	1107.7	2.27
318.15 K, x1 = 0.292	1240.83	1126.5	3.21
318.15 K, x1 = 0.402	1315.11	1144.5	4.59
318.15 K, x1 = 0.501	1363.99	1157.6	5.85
318.15 K, x1 = 0.619	1408.9	1170	7.84
318.15 K, x1 = 0.71	1436.15	1177.9	9.67
318.15 K, x1 = 0.811	1461.4	1185.3	11.96
318.15 K, x1 = 0.907	1481.05	1191.2	14.35
318.15 K, x1 = 1	1497.65	1196.6	17.32
338.15 K, x1 = 0.051	889.98	1020.7	0.79
338.15 K, x1 = 0.102	994.4	1033.2	1.05
338.15 K, x1 = 0.198	1131.14	1058.3	1.6
338.15 K, x1 = 0.292	1220.47	1079.7	2.23
338.15 K, x1 = 0.402	1294.8	1099.7	3.16
338.15 K, x1 = 0.501	1343.74	1113.9	3.99
338.15 K, x1 = 0.619	1388.81	1127.3	5.23
338.15 K, x1 = 0.71	1416.16	1135.6	6.35
338.15 K, x1 = 0.811	1441.5	1143.7	7.7
338.15 K, x1 = 0.907	1461.23	1150	9.11
338.15 K, x1 = 1	1477.86	1155.8	10.82

CCCCCC[n+]1ccn(C)c1.O=S(=O)([N-]S(=O)(=O)C(F)(F)F)C(F)(F)F + CCO
Settings	mass density [kg/m3]	speed of sound [m/s]	viscosity [mPa·s]
278.15 K, x1 = 0.047	933.23	1208.7	2.69
278.15 K, x1 = 0.097	1026.67	1211.4	4.32
278.15 K, x1 = 0.198	1146.24	1222.7	9.53
278.15 K, x1 = 0.292	1215.04	1233.9	16.27
278.15 K, x1 = 0.39	1263.14	1242.8	25.73
278.15 K, x1 = 0.47	1292.55	1250.3	35.73
278.15 K, x1 = 0.596	1327.21	1258.1	56.91
278.15 K, x1 = 0.694	1347.34	1262.6	79.17
278.15 K, x1 = 0.799	1364.86	1267.2	112.54
278.15 K, x1 = 0.903	1379.2	1271.2	154.54
278.15 K, x1 = 1	1390.3	1274.6	211.31
298.15 K, x1 = 0.047	915.22	1145.7	1.73
298.15 K, x1 = 0.097	1008.17	1152.5	2.61
298.15 K, x1 = 0.198	1127.27	1168.4	4.98
298.15 K, x1 = 0.292	1195.96	1181.9	7.97
298.15 K, x1 = 0.39	1244.05	1192.3	12.1
298.15 K, x1 = 0.47	1273.5	1200.6	15.94
298.15 K, x1 = 0.596	1308.27	1209.2	23.72
298.15 K, x1 = 0.694	1328.48	1214.1	31.3
298.15 K, x1 = 0.799	1346.07	1218.9	41.44
298.15 K, x1 = 0.903	1360.48	1223.1	53.7
298.15 K, x1 = 1	1371.64	1226.8	70.46
318.15 K, x1 = 0.047	896.92	1085	1.18
318.15 K, x1 = 0.097	989.44	1095.9	1.71
318.15 K, x1 = 0.198	1108.22	1116.3	3.05
318.15 K, x1 = 0.292	1176.89	1131.9	4.64
318.15 K, x1 = 0.39	1225.05	1143.8	6.7
318.15 K, x1 = 0.47	1254.61	1153	8.61
318.15 K, x1 = 0.596	1289.55	1162.6	12.33
318.15 K, x1 = 0.694	1309.88	1168	15.72
318.15 K, x1 = 0.799	1327.59	1173.4	20.13
318.15 K, x1 = 0.903	1342.08	1178	24.94
318.15 K, x1 = 1	1353.31	1182	30.22
338.15 K, x1 = 0.047	878.04	1025.6	–
338.15 K, x1 = 0.097	970.28	1040.6	–
338.15 K, x1 = 0.198	1088.96	1065.5	–
338.15 K, x1 = 0.292	1157.75	1083.5	–
338.15 K, x1 = 0.39	1206.1	1097	–
338.15 K, x1 = 0.47	1235.83	1107.2	–
338.15 K, x1 = 0.596	1271.01	1118	–
338.15 K, x1 = 0.694	1291.5	1124	–
338.15 K, x1 = 0.799	1309.35	1130	–
338.15 K, x1 = 0.903	1323.94	1135.2	–
338.15 K, x1 = 1	1335.25	1139.3	–
